Data published in PubChem BioAssay AID1117361 (Southern Research Institute, 2015).

Molecular target: Protein Tat (Human immunodeficiency virus type 1 group M subtype B (isolate HXB2)) (UniProt P04608)
Assay: inhibitors of Tat binding to TAR RNA, dose response, counter-screen for Vif-APOBEC3G degradation inhibitor project, biochemical, fluorescence polarization, FAM-labeled TAR RNA (AID 1117361)

Chain of Protein Tat (Human immunodeficiency virus type 1 group M subtype B (isolate HXB2)) (P04608 whole entry, looked up): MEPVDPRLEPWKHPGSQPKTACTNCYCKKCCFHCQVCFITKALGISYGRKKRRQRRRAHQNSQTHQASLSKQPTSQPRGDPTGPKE

Row | Compound | IC50 [µM]
1 | CCCCn1c(O)c(C(CC)=NCCN2CCCCC2)c(=O)[nH]c1=O | 32.5
2 | CN1CCc2cccc3c2[C@@H]1Cc1ccc(O)c(O)c1-3 | 9.08
3 | CCOC(=O)NC1(NC2CCCCC2)Oc2ccccc2O1 | 88.4
4 | CCOC(=O)C(=O)Cc1cccnn1 | 49.5
5 | CCOC(=O)N1CC=C2C(C#N)=C(N)C(C#N)(C#N)[C@H](c3cccs3)[C@H]2C1 | 15.3
6 | COC(=O)C1=COC(C)C2CN3CCc4c([nH]c5ccccc45)C3CC12 (stereo not drawn) | 7.63
7 | O=C(Nc1ccccc1N1CCCC1)c1ccc(Br)o1 | 59.6
8 | CC(=O)Nc1ccc(C=C(C#N)c2ccc(C)cc2)cc1 | 24.7
9 | O=C(O)CSc1c2c(nc3cc(C(=O)N4CCOCC4)ccc13)CCCC2 | 12.2
10 | CCOc1cccc(CNc2ccc(O)cc2)c1OCc1ccccc1Cl | 63
11 | CCCC(=O)N(CCc1ccc(OC)cc1)Cc1nc2ccccc2c(=O)[nH]1 | 71.8
12 | O/N=C1\CCC\C1=C/c1ccco1 | 27.2
13 | CC(=O)Nc1ccc(S(=O)(=O)Nc2nc3ccccc3nc2Nc2ccc(C(=O)O)c(O)c2)cc1 | 32.2
14 | Oc1ccc2c(c1)C1CCCC1(N1CCOCC1)O2 (stereo not drawn) | 23.1
15 | O=C(O)c1ccc2c(c1)C1C(Cl)C(Sc3ccccc3[N+](=O)[O-])CC1C(c1cccc([N+](=O)[O-])c1)N2 (stereo not drawn) | 6.3
16 | O=C(NCCO)Nc1ccc2nc(-c3ccco3)c(-c3ccco3)nc2c1 | 1.76
17 | CNc1ccc(Br)cc(C(=O)/C=C/c2ccc(OC)cc2)c1=O | 9.15
18 | COc1ccc(NC(=O)c2cccc(S(=O)(=O)Nc3ccc(Br)cc3)c2)cn1 | 2.15
19 | O=C1C=C(N2CC2)c2ccccc2C1=O | 80.9
20 | Cc1ccc(N/N=C/c2c(C)c(C#N)c(=O)n(C)c2O)cc1C | 11.9
21 | Cc1cc(C(=O)CSc2nnnn2C)c(C)n1CCc1ccc(Cl)cc1 | 84.6
22 | Oc1ccccc1/C=N/c1c(-c2ccco2)nc2ccccn12 | 2.97
23 | O=C1CCC/C(=N\NC(=O)c2ccc(COc3cccc4cccnc34)cc2)C1 | 82.3
24 | COc1ccc(NC(=O)CC2Nc3cccc4cccc(c34)NC2=O)cc1 (stereo not drawn) | 7.03

Row | Compound | IC50 [µM]
25 | O=[N+]([O-])c1cc2ccccc2c(O)c1O | 56.8
26 | CCCCC(=O)NC(=S)Nc1cc(C(=O)O)ccc1Cl | 51.2
27 | O=c1c(-c2cc3ccccc3o2)[n+]([O-])c2ccccc2n1OCc1ccccn1 | 34.5
28 | COc1ccc(OC)c(S(=O)(=O)Nc2ccc(O)c3ccccc23)c1 | 83
29 | COC(=O)c1ccc(COc2ccccc2/C=C(\C#N)C(=O)Nc2c(C)cc(C)cc2C)cc1 | 46.2
30 | CN(C(=O)COC(=O)c1cc(-c2ccco2)nc2ccccc12)C1CCS(=O)(=O)C1 (stereo not drawn) | 6.36
31 | COC(=O)C1=C(C)NC(=O)/C1=C\c1ccco1 | 39.7
32 | C/C(=C\C(=O)c1ccc(C)cc1)Nc1cccc(O)c1 | 10.4
33 | Cc1ccc(S(=O)(=O)Cn2nnnc2C(CC(C)C)N2CCN(C)CC2)cc1 (stereo not drawn) | 22.6
34 | O=C(OC1CCCCC1)c1ccc2c(c1)C1C=CCC1C(C(=O)O)N2 (stereo not drawn) | 2.26
35 | COc1ccccc1NC(=O)CSc1nnc(Cc2cc(=O)[nH]c(=O)[nH]2)n1-c1ccccc1 | 66.5
36 | COc1ccc(O)c(N)c1 | 5.5
37 | O=C1CC(/C=C/c2ccco2)=Nc2ccccc2N1 | 6.84
38 | CCCNC1=C(C)C(=O)C2=C(C1=O)C(COC(N)=O)[C@]1(OC)C3NC3CN21 (stereo partly drawn) | 22.7
39 | Cc1ccc(/C=c2\sc3nc(-c4cccs4)nn3c2=O)o1 | 13.6
40 | CN(C)c1ncc(C2=C(Cl)C(=O)C(N3CCCC3)=C(Cl)C2=O)s1 | 1.54
41 | C=CC(=O)N1C/C(=C/c2ccc(F)cc2)C(=O)/C(=C\c2ccc(F)cc2)C1 | 89.5
42 | O=[N+]([O-])c1cc(Br)c(O)c(C=Nc2ccc(N3CCOCC3)cc2)c1 | 77.5
43 | O=C(NCCCO)Nc1ccc2nc(-c3ccco3)c(-c3ccco3)nc2c1 | 2.01
44 | CC1(C)CCCN(C(=O)c2coc(=O)c(Br)c2)C1 | 7.77
45 | CCOc1cccc(=O)c2c(C)oc(C)c12 | 22.6
46 | CC(=O)OCCCNc1cc(Sc2nc3ccccc3s2)c2nonc2c1[N+](=O)[O-] | 3.41
47 | O=C(O)c1ccc2c(c1)C1C=CCC1C(c1ccncc1)N2 (stereo not drawn) | 6.37
48 | O=C(Nc1ccccc1)C1=C(O)CC(c2ccco2)CC1=Nc1ccccc1 (stereo not drawn) | 70.3

Row | Compound | IC50 [µM]
49 | CC1CCN(Cc2c(O)ccc3c2O/C(=C\c2ccco2)C3=O)CC1 | 4.79
50 | Cc1ccc(C(CC(=O)NCc2ccco2)c2ccccc2)c(O)c1 (stereo not drawn) | 30
51 | O=C(N/N=C/C=C/c1ccco1)c1cccs1 | 11.6
52 | CCOC(=O)COc1nc(-c2ccco2)cc(-c2ccco2)c1C#N | 8.34
53 | c1cncc(-c2nnc3sc(-c4ccco4)nn23)c1 | 64
54 | Cc1cc(C)c([N+](=O)[O-])cc1-c1ccc(/C=N/c2c(-c3ccco3)nc3ccccn23)o1 | 57.5
55 | O=C(CCCCCN1C(=O)CCC1=O)Nc1ccc(Cl)c(C(F)(F)F)c1 | 16.4
56 | CC(=O)C1=C(C)NC(C)=C(C(C)=O)C1c1cccs1 | 91.4
57 | CCCOc1ccc(N)cc1N | 59.5
58 | COc1ccc2nc(-c3ccco3)c(-c3ccco3)nc2c1 | 3.13
59 | CNc1ccc(Br)cc(C(=O)/C=C/c2ccc(Cl)cc2Cl)c1=O | 9.56
60 | CCOC(=O)Cc1cc(=O)n2[nH]c(C)cc2n1 | 78.3
61 | NC(CO)C(=O)NNCc1ccc(O)c(O)c1O (stereo not drawn) | 8.84
62 | CCCCN1C2CCCC1CC(NC(=O)c1ccc(OC)c(OC)c1)C2 (stereo not drawn) | 78.3
63 | COc1ccc(OC)c(N2C(=O)[C@@H]3C(c4ccccc4Cl)=NO[C@@H]3C2=O)c1 | 82.1
64 | COc1cccc(-c2cn3nc4c(nc3n2)CCCC4)c1 | 100
65 | COC(=O)c1ccc(COc2ccc(/C=N/Nc3cccc(C(=O)O)c3)cc2)cc1 | 62.4
66 | C=C(C)C(=O)Nc1ccc2c(c1)OCCOCCOCCO2 | 21.6
67 | C[n+]1cccc2cccc([O-])c21 | 13.7
68 | C[c-]1[c-](C)[c-](C)[c-](C)[c-]1C.[Fe].c1cc2nccc(N3CCCC3)[c-]2c1 (stereo not drawn) | 2.81
69 | CCOc1ccc(NCC2CCOC(C)(C)C2)cc1 (stereo not drawn) | 64.8
70 | Cc1ccc(-c2c3c([nH]c(=S)c2C#N)CCCC3)o1 | 21.2
71 | Oc1ccc(/C=N/NC2=NCCCCC2)c(O)c1 | 25.1
72 | COc1cc(NCCCCCCN)c2ncccc2c1OC | 56.7

Row | Compound | IC50 [µM]
73 | CN1C(=O)/C(=C/C=C/c2ccco2)C(=O)NC1=S | 11.2
74 | O=C1CC(=O)N(Cc2ccco2)C(=O)N1 | 14.6
75 | Cn1cnnc1SC/C(O)=C(\C#N)c1nc2ccccc2[nH]1 | 37.4
76 | NC(=O)Cn1c(=O)n(Cc2ccco2)c(=O)c2c3c(sc21)CCCCC3 | 15.5
77 | COc1ccc(Nc2ccc(OC)cc2)cc1 | 23.2
78 | O=C1C=CC(=O)c2c(O)c(CO)c(CO)c(O)c21 | 3.48
79 | N#Cc1c(N)sc(=S)c2c1CCCCC2 | 1.84
80 | COCCNC(=O)COC(=O)c1[nH]c(C)c(C(C)=O)c1C | 35.4
81 | COc1ccc(CCNC(=O)c2ccc3nc(-c4ccco4)c(-c4ccco4)nc3c2)cc1OC | 4.32
82 | CC1CCC/C(=C\Nc2ccc(C(=O)O)c(O)c2)C1=O (stereo not drawn) | 5.37
83 | COc1ccc(/C=N/NC(=O)c2cc(O)c(O)c(O)c2)cc1Cn1cc([N+](=O)[O-])cn1 | 46.7
84 | Cc1ccc(C)c(-n2c(Cc3cc(=O)[nH]c(=O)[nH]3)nnc2SC(C)C)c1 | 77
85 | Cc1cccc(-n2c(Cc3cc(=O)[nH]c(=O)[nH]3)nnc2SCC(=O)NCC2CCCO2)c1 (stereo not drawn) | 58.5
86 | COC/C=C/C1=CC2=CC(=O)C(C)(OC(=O)C3CCCC3)C(=O)C2=CO1 (stereo not drawn) | 10.5
87 | CN(CC(=O)Nc1cccc(F)c1)C(=O)c1cccc(-n2cccc2)c1 | 40.9
88 | O=c1oc2c(O)c(O)cc3c(=O)oc4c(O)c(O)cc1c4c23 | 1.67
89 | Cc1cc(C(=O)CSc2nnc(-c3ccco3)o2)c(C)n1Cc1ccco1 | 4.41
90 | CCN(CC)c1ccc(NC2CC(=O)N(CCc3ccc(OC)cc3)C2=O)cc1 (stereo not drawn) | 27.3
91 | CCOc1cccc(CNCCNC(=O)c2nonc2N)c1 | 84.2
92 | COc1cc(CNc2ccc(O)cc2)cc(Br)c1OCc1ccccc1 | 34.5
93 | Nc1ccc(Nc2ccccc2)c(S(=O)(=O)O)c1 | 31.4
94 | O=S(=O)(O)c1cc(Cl)cc(N=Nc2ccc(O)cc2O)c1O | 22.5
95 | CN(C(=S)Nc1cccnc1)c1ccc(O)cc1 | 27
96 | Cc1n[nH]c(=S)n(NC(=O)/C=C/C(=O)Nn2c(=S)[nH]nc(C)c2=O)c1=O | 18.2

Row | Compound | IC50 [µM]
97 | CC1Cc2ccccc2N1Cc1cc(=O)n2ccsc2n1 (stereo not drawn) | 10
98 | O=C(NCc1ccccn1)c1ccc2nc(-c3ccco3)c(-c3ccco3)nc2c1 | 4.75
99 | COC(=O)C1=C(C)NC(=O)/C1=C\c1cc(C)n(-c2ccccc2C)c1C | 28.7
100 | CC(=O)c1ccc(S(=O)(=O)Nc2cccc(-n3cnnn3)c2)cc1 | 74.2
101 | CCOc1cc(N2CCOCC2)c(OCC)cc1NS(=O)(=O)c1ccc(Cl)s1 | 14.9
102 | COC(=O)CSc1nnc(CNC(=O)Cc2ccccc2)n1C | 1.43
103 | Clc1ccc(OCc2nn3c(-c4ccco4)nnc3s2)c(Cl)c1 | 51.5
104 | CNC(=O)c1ccccc1NC(=O)c1ccc(C)c(S(=O)(=O)N2CCCCC2)c1 | 0.969
105 | CCCSC1=N/C(=C\c2ccc([N+](=O)[O-])o2)C(=O)S1 | 7.37
106 | Cc1ccn2cc(-c3nonc3C)cc2c1 | 21.4
107 | Cn1cccc1/C=C1\CCC/C(=C\c2cccn2C)C1=O | 17
108 | Nc1cccc2cc(S(=O)(=O)O)ccc12 | 67.9
109 | COc1cc2[nH]c(Cl)c([N+](=O)[O-])c2cc1OC | 24.3
110 | O=C(NCc1ccccc1)c1ccc2nc(-c3ccco3)c(-c3ccco3)nc2c1 | 4.55
111 | Cc1cccc(N(C(=O)Cn2nnc3ccccc32)C(C(=O)NCc2ccco2)c2ccncc2)c1C (stereo not drawn) | 27.6
112 | CCOc1ccccc1C(O)C1=CC(=O)c2ccccc2C1=O (stereo not drawn) | 77.7
113 | CNc1ccccc(-c2ccc3cc4c(cc3n2)OCO4)c1=O | 2.22
114 | CC1(CCl)N([O-])C2=C(CCCC2)[N+]1=O (stereo not drawn) | 44.6
115 | O=c1c(O)cccc2cc(O)c(O)c(O)c12 | 3.96
116 | COC(C(=O)C(O)C(C)O)C1Cc2cc3cc(OC4CC(OC5CC(O)C(O)C(C)O5)C(O)C(C)O4)c(C)c(O)c3c(O)c2C(=O)C1OC1CC(OC2CC(OC3CC(O)C(OC)C(C)O3)C(O)C(C)O2)C(O)C(C)O1 (stereo not drawn) | 27.9
117 | O=[N+]([O-])c1cc(CN2CCOCC2)c2cccnc2c1O | 15.8
118 | O=C(O)Cc1cccc(=O)c(O)c1C(=O)O | 54.7
